Data on four compounds can be found in patent publication US11078194B2, “Salt form and crystal form serving as FGFR and VEGFR inhibitor compounds, and preparation method therefor” (HARBIN ZHENBAO PHARMACEUTICAL CO., LTD., priority 2017, dated 2021).

The structures appear in SMILES notation. Read-outs that look alike come from different tables or passages of the source.

The nature of the data set: Solubility test of compounds of formula (I)-(IV) in 4 vehicles (water, SGF, FaSSIF, FeSSIF), HPLC. In kind it is physicochemical. To be noted: for solubility at 4 h / solubility at 24 h: thermodynamic from solid; for solubility at 4 h / Solubility (μg/mL)_4 hours: 4 hours stirring; for solubility at 4 h: read-out: Solubility (μg/mL)_4 hours; for solubility at 24 h / Solubility (μg/mL)_24 hours: 24 hours stirring; for solubility at 24 h: read-out: Solubility (μg/mL)_24 hours. As to the method:
About 5 mg of the compound of formula (I) was weighed accurately, and placed in a sample bottle. 10 mL of acetonitrile was added. The mixture was sonicated for 5 minutes, cooled to room temperature, and well mixed. Two control sample solutions were prepared in parallel, and labeled as STD-1 and STD-2, respectively.
The control sample solution STD-1 was serially diluted 1, 5, 10, 100 and 1000 times and labeled as linear solutions L1, L2, L3, L4 and L5.
The solubility of the compound of formula (I) and its salt in 4 vehicles with different pH were tested. About 10 mg of the compounds of formula (I)-(IV) were weighed respectively, then 5.0 mL of different vehicles (water, SGF, FaSSIF, FeSSIF) were added thereto, respectively, and well mixed to obtain suspensions. Magnetic stir bars were added into the suspensions, and the suspensions were placed on a magnetic stirrer for stirring. After stirring for 2 hours, 4 hours, and 24 hours, the samples were collected and centrifuged. The residual solid samples in the lower layer were detected by XRPD. The concentrations of the samples in the upper layer were determined by HPLC, and the pH value of the samples were also detected.
(§1) FaSSIF: (1) 0.042 g of sodium hydroxide, 0.3438 g of sodium dihydrogen phosphate and 0.6186 g of sodium chloride were weighed, and 90 mL of purified water was added and well mixed. The pH value of the obtained solution were adjusted to 6.5 with 1 N hydrochloric acid or 1 N sodium hydroxide, and the solution were diluted with purified water to a final volume of 100 mL. (2) 50 mL of the above buffer solution was taken, followed by addition of 0.224 g of commercially available FaSSIF/FeSSIF/FaSSGF powder (Biorelevant.com). The buffer solution was stirred until dissolved, and diluted with purified water to a final volume of 100 mL. The buffer solution was placed at room temperature.
as §1, with “FeSSIF:” for “FaSSIF:”, “0.404” for “0.042”, “0.865” for “0.3438”, “glacial acetic acid, 1.1874” for “sodium dihydrogen phosphate and 0.6186”, “5.0” for “6.5”, “1.12” for “0.224”
FaSSGF (SGF): (1) 0.2 g of sodium chloride was added to 90 mL of purified water and mixed well. The pH value thereof was adjusted to 1.8 with 1 N hydrochloric acid and the solution diluted with purified water to a final volume of 100 mL. The obtained solution was allowed to stand at room temperature.

The mark [1] stands for this setting: FaSSIF, pH 6.5, fassif, vehicle FaSSIF.
[2] abbreviates: FeSSIF, pH 5, fessif, vehicle FeSSIF.
[3] abbreviates: pH of sample in FaSSIF (vehicle pH 6.62).
Where [4] appears, read: pH of sample in FeSSIF (vehicle pH 4.59).
The mark [5] stands for this setting: pH of sample in H2O (vehicle pH 8.23).
The mark [6] stands for this setting: pH of sample in SGF (vehicle pH 1.57).
Where [7] appears, read: water, pH 8.23, water, vehicle H2O.
[8] abbreviates: SGF (FaSSGF), pH 1.8, simulated gastric fluid, vehicle SGF.

Regarding `C[C@@H](Oc1ccc2[nH]nc(/C=C(\F)c3ccc(CNC4CCOCC4)nc3)c2c1)c1c(Cl)cncc1Cl` [compound of formula (I)], the solubility at 4 h reads like this: under setting [1], 781 µg/mL; under setting [2], 1950 µg/mL. In addition, the solubility at 24 h under setting [2] turned out to be 1730 µg/mL. Besides, where the note is “SGF, FaSSIF, FeSSIF, conclusion in words”, the “solubility in the three biological vehicle” value was “good solubility”. The “pH (4 hours)” value is, setting by setting: under setting [3], 6.58; under setting [4], 5.01; under setting [5], 8.33; under setting [6], 2.10. Moreover, the “pH (24 hours)” value runs as follows: under setting [3], 6.57; under setting [4], 5.01; under setting [5], 7.97; under setting [6], 2.06. For the same compound, the “Solubility (μg/mL)_24 hours” value was 611.3 µg/mL (vehicle FaSSIF), “<LOQ” (vehicle H2O) and 1825.6 µg/mL (vehicle SGF). For the same compound, the “Solubility (μg/mL)_4 hours” value (vehicle H2O) is 5.8 µg/mL and the “Solubility (μg/mL)_4 hours” value (vehicle SGF) is 1971.3 µg/mL. Under “water, conclusion in words, listed as free base”, the “solubility in the aqueous phase / water” value is listed as “extremely difficult to dissolve”.
Consider `C[C@@H](Oc1ccc2[nH]nc(/C=C(\F)c3ccc(CNC4CCOCC4)nc3)c2c1)c1c(Cl)cncc1Cl` [compound of formula (II)], for which the “pH (4 hours)” value is, setting by setting: under setting [3], 6.25; under setting [4], 4.90; under setting [5], 2.68; under setting [6], 1.86. The “pH (24 hours)” value reads like this: under setting [3], 6.22; under setting [4], 4.91; under setting [5], 2.68; under setting [6], 1.86. The “Solubility (μg/mL)_4 hours” value runs as follows: (vehicle FaSSIF) 949.7 µg/mL; (vehicle FeSSIF) 2010.0 µg/mL; (vehicle H2O) 1576.9 µg/mL; (vehicle SGF) 106.3 µg/mL. Moreover, the “Solubility (μg/mL)_24 hours” value runs as follows: (vehicle FaSSIF) 281.6 µg/mL; (vehicle FeSSIF) 1831.5 µg/mL; (vehicle SGF) 45.4 µg/mL. Also, the solubility at 24 h under setting [7] was 1540 µg/mL. Under “water, conclusion in words, listed as hydrochloride”, the “solubility in the aqueous phase / water” value was “highest solubility”.
Consider `C[C@@H](Oc1ccc2[nH]nc(/C=C(\F)c3ccc(CNC4CCOCC4)nc3)c2c1)c1c(Cl)cncc1Cl.O=C(O)CC(O)(CC(=O)O)C(=O)O` [compound of formula (III)], for which the solubility at 4 h is 910 µg/mL under setting [1], 2370 µg/mL under setting [2], 2420 µg/mL under setting [8] and 99.5 µg/mL under setting [7]. Also, the solubility at 24 h was 942 µg/mL under setting [1], 2230 µg/mL under setting [2], 16.8 µg/mL under setting [8] and 184 µg/mL under setting [7]. The “pH (4 hours)” value runs as follows: under setting [3], 6.43; under setting [4], 4.96; under setting [5], 5.60; under setting [6], 2.09. Besides, the “pH (24 hours)” value under setting [3] was determined as 6.33, the “pH (24 hours)” value under setting [4] is given as 4.97, the “pH (24 hours)” value under setting [5] is on record as 5.47 and the “pH (24 hours)” value under setting [6] came to 2.08.
For the compound `C[C@@H](Oc1ccc2[nH]nc(/C=C(\F)c3ccc(CNC4CCOCC4)nc3)c2c1)c1c(Cl)cncc1Cl.O=C(O)C[C@H](O)C(=O)O` [compound of formula (IV)], the solubility at 4 h runs as follows: under setting [1], 1130 µg/mL; under setting [2], 2410 µg/mL; under setting [8], 2470 µg/mL; under setting [7], 7.4 µg/mL. Moreover, the solubility at 24 h under setting [1] amounted to 824 µg/mL, the solubility at 24 h under setting [2] came to 2280 µg/mL, the solubility at 24 h under setting [8] was 43.3 µg/mL and the solubility at 24 h under setting [7] came out at 19.3 µg/mL. The “pH (4 hours)” value under setting [3] was 6.26, the “pH (4 hours)” value under setting [4] was found to be 4.95, the “pH (4 hours)” value under setting [5] was 6.93 and the “pH (4 hours)” value under setting [6] amounted to 2.09. The “pH (24 hours)” value by setting is: under setting [3], 6.27; under setting [4], 4.95; under setting [5], 6.46; under setting [6], 2.09.
